Experiments:
[1] = refractive index (Na D-line) (dimensionless); xn = mol fraction of the nth substance listed; conditions: 99 kPa, Liquid, Abbe refractometer
[2] = relative permittivity at various frequencies (dimensionless); xn = mol fraction of the nth substance listed; conditions: 99 kPa, Liquid, Frequency=2 MHz, Parallel plate capacitor

CC(C)CCl [1-chloro-2-methylpropane] + CCCCCCC
Conditions	refractive index, 283.15 K	refractive index, 298.15 K	refractive index, 313.15 K	relative permittivity, 283.15 K	relative permittivity, 298.15 K	relative permittivity, 313.15 K
[1], x2 = 0	1.40354	1.39529	1.38683	–	–	–
[1], x2 = 0.0485	1.40248	1.39425	1.38582	–	–	–
[1], x2 = 0.1009	1.40145	1.39325	1.38485	–	–	–
[1], x2 = 0.2046	1.39974	1.39161	1.38327	–	–	–
[1], x2 = 0.3065	1.3983	1.39022	1.38196	–	–	–
[1], x2 = 0.4028	1.39716	1.38914	1.38093	–	–	–
[1], x2 = 0.5039	1.3961	1.38814	1.37999	–	–	–
[1], x2 = 0.603	1.3952	1.38729	1.3792	–	–	–
[1], x2 = 0.7033	1.39445	1.3866	1.37858	–	–	–
[1], x2 = 0.8026	1.39381	1.38601	1.37804	–	–	–
[1], x2 = 0.9158	1.39326	1.38548	1.37758	–	–	–
[1], x2 = 0.9513	1.3931	1.38538	1.37749	–	–	–
[2], x2 = 0	–	–	–	7.472	7.074	6.657
[2], x2 = 0.0467	–	–	–	7.151	6.783	6.395
[2], x2 = 0.1011	–	–	–	6.755	6.418	6.062
[2], x2 = 0.197	–	–	–	6.042	5.749	5.45
[2], x2 = 0.297	–	–	–	5.32	5.08	4.828
[2], x2 = 0.4028	–	–	–	4.619	4.43	4.232
[2], x2 = 0.5045	–	–	–	4.028	3.88	3.725
[2], x2 = 0.6012	–	–	–	3.537	3.425	3.3
[2], x2 = 0.7002	–	–	–	3.094	3.012	2.918
[2], x2 = 0.801	–	–	–	2.697	2.636	2.568
[2], x2 = 0.9058	–	–	–	2.303	2.262	2.219
[2], x2 = 0.9473	–	–	–	2.147	2.114	2.081

CCCCCl [1-chlorobutane] + CCCCCC
Conditions	refractive index, 283.15 K	refractive index, 298.15 K	refractive index, 313.15 K	relative permittivity, 283.15 K	relative permittivity, 298.15 K	relative permittivity, 313.15 K
[1], x2 = 0	1.4075	1.3995	1.39131	–	–	–
[1], x2 = 0.0534	1.40565	1.39762	1.38941	–	–	–
[1], x2 = 0.1022	1.404	1.39595	1.38772	–	–	–
[1], x2 = 0.2056	1.40063	1.39253	1.38428	–	–	–
[1], x2 = 0.3039	1.39755	1.38941	1.38115	–	–	–
[1], x2 = 0.3985	1.39477	1.38661	1.37832	–	–	–
[1], x2 = 0.5023	1.39187	1.38367	1.37537	–	–	–
[1], x2 = 0.6042	1.38921	1.38099	1.37267	–	–	–
[1], x2 = 0.7026	1.38679	1.37855	1.37024	–	–	–
[1], x2 = 0.8041	1.38445	1.37621	1.36788	–	–	–
[1], x2 = 0.9082	1.38227	1.37401	1.3657	–	–	–
[1], x2 = 0.9471	1.3815	1.37324	1.36493	–	–	–
[2], x2 = 0	–	–	–	7.552	7.157	6.757
[2], x2 = 0.0476	–	–	–	7.176	6.821	6.456
[2], x2 = 0.0989	–	–	–	6.775	6.461	6.13
[2], x2 = 0.1968	–	–	–	6.057	5.8	5.526
[2], x2 = 0.3016	–	–	–	5.335	5.13	4.901
[2], x2 = 0.3968	–	–	–	4.722	4.553	4.37
[2], x2 = 0.5024	–	–	–	4.101	3.968	3.824
[2], x2 = 0.6034	–	–	–	3.567	3.458	3.348
[2], x2 = 0.6982	–	–	–	3.11	3.027	2.94
[2], x2 = 0.808	–	–	–	2.63	2.567	2.506
[2], x2 = 0.9029	–	–	–	2.259	2.217	2.176
[2], x2 = 0.9447	–	–	–	2.103	2.07	2.04

CCC(C)Cl (stereo unspecified) [2-chlorobutane] + CCCCCC
Conditions	refractive index, 283.15 K	refractive index, 298.15 K	refractive index, 313.15 K	relative permittivity, 283.15 K	relative permittivity, 298.15 K	relative permittivity, 313.15 K
[1], x2 = 0	1.40226	1.39404	1.38562	–	–	–
[1], x2 = 0.0471	1.40083	1.3926	1.38418	–	–	–
[1], x2 = 0.0973	1.39939	1.39115	1.38274	–	–	–
[1], x2 = 0.1986	1.39658	1.38833	1.37993	–	–	–
[1], x2 = 0.293	1.39412	1.38584	1.37742	–	–	–
[1], x2 = 0.4036	1.39142	1.38315	1.3747	–	–	–
[1], x2 = 0.5099	1.38903	1.38071	1.37229	–	–	–
[1], x2 = 0.6202	1.38673	1.37842	1.37002	–	–	–
[1], x2 = 0.708	1.38508	1.37678	1.3684	–	–	–
[1], x2 = 0.8068	1.38338	1.3751	1.36674	–	–	–
[1], x2 = 0.908	1.38183	1.37356	1.36523	–	–	–
[1], x2 = 0.9555	1.38113	1.37286	1.36454	–	–	–
[2], x2 = 0	–	–	–	9.323	8.652	8.07
[2], x2 = 0.0536	–	–	–	8.752	8.128	7.593
[2], x2 = 0.0967	–	–	–	8.282	7.716	7.222
[2], x2 = 0.1993	–	–	–	7.216	6.76	6.345
[2], x2 = 0.2995	–	–	–	6.242	5.881	5.556
[2], x2 = 0.3993	–	–	–	5.389	5.093	4.827
[2], x2 = 0.4997	–	–	–	4.625	4.39	4.182
[2], x2 = 0.5974	–	–	–	3.963	3.786	3.626
[2], x2 = 0.7026	–	–	–	3.366	3.225	3.106
[2], x2 = 0.8044	–	–	–	2.811	2.72	2.642
[2], x2 = 0.9006	–	–	–	2.349	2.296	2.253
[2], x2 = 0.9472	–	–	–	2.137	2.105	2.07
